Reference: patent US10934302B1, “SHP2 phosphatase inhibitors and methods of use thereof” (Relay Therapeutics, Inc., priority 2018, dated 2021)

Biological target: SHP2 (Homo sapiens (Human), UniProt Q06124)
Test: SHP2 allosteric inhibition assay (DiFMUP prompt fluorescence)
Assay type: biochemical
Conditions: 0.25 nM SHP2 activated with 0.5 μM peptide IRS1_pY1172(dPEG8)pY1222; substrate DiFMUP

SHP2, sequence (Q06124 whole entry): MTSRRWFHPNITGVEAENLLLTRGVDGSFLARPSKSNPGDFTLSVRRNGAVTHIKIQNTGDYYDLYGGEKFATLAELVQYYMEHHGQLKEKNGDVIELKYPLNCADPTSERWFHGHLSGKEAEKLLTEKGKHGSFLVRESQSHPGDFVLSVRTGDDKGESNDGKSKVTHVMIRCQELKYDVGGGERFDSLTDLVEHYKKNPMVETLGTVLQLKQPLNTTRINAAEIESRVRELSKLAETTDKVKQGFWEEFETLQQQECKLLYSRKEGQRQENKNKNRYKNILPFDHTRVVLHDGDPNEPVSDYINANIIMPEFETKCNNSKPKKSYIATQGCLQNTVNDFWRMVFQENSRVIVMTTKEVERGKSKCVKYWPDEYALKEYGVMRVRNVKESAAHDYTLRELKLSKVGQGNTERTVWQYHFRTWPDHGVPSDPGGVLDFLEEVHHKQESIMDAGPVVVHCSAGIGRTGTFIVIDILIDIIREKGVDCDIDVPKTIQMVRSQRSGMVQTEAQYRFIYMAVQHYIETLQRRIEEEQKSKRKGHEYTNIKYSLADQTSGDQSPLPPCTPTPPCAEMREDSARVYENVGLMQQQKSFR

Row | Compound | IC50
1 | C[C@@H](C#N)N(C)c1n[nH]c2nc(N3CCC4(CC3)Cc3ccccc3[C@H]4N)cnc12 (racemic) [Example 150, (S)-2-((6-((S)-1-amino-1,3-dihydrospiro[indene-2,4′-piperidin]-1′-yl)-1H-pyrazolo[3,4-b]pyrazin-3-yl)(methyl)amino)propanenitrile] | 50 to 1000 nM
2 | C[C@@H](C(N)=O)N(C)c1n[nH]c2nc(N3CCC4(CC3)Cc3ccccc3[C@H]4N)cnc12 (racemic) [Example 151, (2S)-2-({6-[(3S)-3-amino-1,3-dihydrospiro[indene-2,4′-piperidin]-1′-yl]-1H-pyrazolo[3,4-b]pyrazin-3-yl}(methyl)amino)propanamide] | ≤ 50 nM
3 | N[C@@H]1c2ccccc2CC12CCN(c1cnc(N3CCC[C@H]3c3ccccc3)cn1)CC2 (racemic) [Example 165, (3S)-1′-{5-[(2S)-2-phenylpyrrolidin-1-yl]pyrazin-2-yl}-1,3-dihydrospiro[indene-2,4′-piperidin]-3-amine] | > 10000 nM
4 | N[C@@H]1c2ccccc2CC12CCN(c1cnc(N3CCCC[C@@H]3c3ccccc3)cn1)CC2 (racemic) [Example 166, (S)-1′-(5-((R)-2-phenylpiperidin-1-yl)pyrazin-2-yl)-1,3-dihydrospiro[indene-2,4′-piperidin]-1-amine] | ≤ 50 nM
5 | N[C@@H]1c2ccccc2CC12CCN(c1cnc(N3CCCC[C@H]3c3ccccc3)cn1)CC2 (racemic) [Example 176] | > 10000 nM
6 | Cn1c(N2CCC3(CC2)Cc2ccccc2[C@H]3N)nc2[nH]nc(N3CCCCC3)c2c1=O (racemic) [Example 200] | ≤ 50 nM
7 | Cc1cnc(CO)c(N2CCC3(CC2)Cc2ccccc2[C@@H]3N)n1 (single isomer, unassigned) [Example 121] | ≤ 50 nM
8 | Cc1cnc(CO)c(N2CCC3(CC2)Cc2ccccc2[C@H]3N)n1 (single isomer, unassigned) [Example 122] | ≤ 50 nM
9 | Nc1nccc(Oc2n[nH]c3nc(N4CCC5(CC4)Cc4ccccc4[C@@H]5N)cnc23)c1Cl (single isomer, unassigned) [Example 136] | ≤ 50 nM
10 | Nc1nccc(Oc2n[nH]c3nc(N4CCC5(CC4)Cc4ccccc4[C@H]5N)cnc23)c1Cl (single isomer, unassigned) [Example 137] | ≤ 50 nM
11 | C[C@@H](O)c1nc2c(N3CCCc4ncccc43)n[nH]c2nc1N1CCC2(CC1)Cc1ccccc1[C@H]2N (single isomer, unassigned) [Example 141] | ≤ 50 nM
12 | C[C@H](O)c1nc2c(N3CCCc4ncccc43)n[nH]c2nc1N1CCC2(CC1)Cc1ccccc1[C@H]2N (single isomer, unassigned) [Example 142] | ≤ 50 nM
13 | N[C@H]1c2ccccc2C[C@@]12CC=C(c1cnc3c(N4CCCc5ncccc54)n[nH]c3n1)CC2 (single isomer, unassigned) [Example 172] | 1000 to 10000 nM
14 | N[C@@H]1c2ccccc2C[C@@]12CC=C(c1cnc3c(N4CCCc5ncccc54)n[nH]c3n1)CC2 (single isomer, unassigned) [Example 173] | > 10000 nM
15 | N[C@H]1c2ccccc2C[C@]12CC[C@H](c1cnc3c(N4CCCc5ncccc54)n[nH]c3n1)CC2 (single isomer, unassigned) [Example 188, (1s, 1′R, 4S)-4-(3-(3,4-dihydro-1,5-naphthyridin-1(2H)-yl)-1H-pyrazolo[3,4-b]pyrazin-6-yl)-1′,3′-dihydrospiro[cyclohexane-1,2′-inden]-1′-amine] | > 10000 nM
16 | N[C@@H]1c2ccccc2CC12CCN(c1cnc(S[C@H]3CCOC3)cn1)CC2 (single isomer, unassigned) [Example 234] | ≤ 50 nM
17 | N[C@H]1c2ccccc2C[C@]12CC[C@H](c1cnc(Sc3ccnc(Cl)c3Cl)cn1)CC2 (single isomer, unassigned) [Example 276, (1s, 3′R, 4S)-4-{5-[(2,3-dichloropyridin-4-yl)sulfanyl]pyrazin-2-yl}-1′,3′-dihydrospiro[cyclohexane-1,2′-inden]-3′-amine] | ≤ 50 nM
18 | N[C@H]1c2ccccc2C[C@]12CC[C@@H](c1cnc(Sc3ccnc(Cl)c3Cl)cn1)CC2 (single isomer, unassigned) [Example 277, (1r, 4r)-4-(5-((2,3-dichloropyridin-4-yl)thio)pyrazin-2-yl)-1′,3′-dihydrospiro[cyclohexane-1,2′-inden]-1′-amine] | 50 to 1000 nM
19 | NC1c2ccccc2C[C@]12CC[C@H](c1ccc(SCC3CC3)nc1)CC2 (single isomer, unassigned) [Example 281, (1s, 3'S, 4R)-4-{6-[(cyclopropylmethyl)sulfanyl]pyridin-3-yl}-1′,3′-dihydrospiro[cyclohexane-1,2′-inden]-3′-amine] | 50 to 1000 nM
20 | NC1c2ccccc2C[C@]12CC[C@H](c1ccc(SCC3CC3)nc1)CC2 (single isomer, unassigned) [Example 282, (1s, 3′R, 4S)-4-{6-[(cyclopropylmethyl)sulfanyl]pyridin-3-yl}-1′,3′-dihydrospiro[cyclohexane-1,2′-inden]-3′-amine] | ≤ 50 nM
21 | NC1c2ccccc2CC12CCC(c1cnc(SCC3CC3)cn1)CC2 (single isomer, unassigned) [Example 283, (1s, 3'S, 4R)-4-{5-[(cyclopropylmethyl)sulfanyl]pyrazin-2-yl}-1′,3′-dihydrospiro[cyclohexane-1,2′-inden]-3′-amine] | > 10000 nM
22 | C[C@@H](C(=O)N1CCC2(CC1)Cc1ccccc1[C@H]2N)c1ccc(F)cc1 (single isomer, unassigned) [Example 291] | > 10000 nM
23 | N[C@@H]1c2ccccc2CC12CCN(c1cnc(N3CCCC3c3ccccc3)cn1)CC2 (stereo in doubt) [Example 164, (3S)-1′-{5-[(2S)-2-phenylpyrrolidin-1-yl]pyrazin-2-yl}-1,3-dihydrospiro[indene-2,4′-piperidin]-3-amine] | ≤ 50 nM
24 | CC(=O)N1CCN(c2n[nH]c3nc(N4CCC5(CC4)Cc4ccccc4[C@@H]5N)cnc23)c2ccccc21 [Example 1, 1-(4-{6-[(3R)-3-amino-1,3-dihydrospiro[indene-2,4′-piperidin]-1′-yl]-1H-pyrazolo[3,4-b]pyrazin-3-yl}-1,2,3,4-tetrahydroquinoxalin-1-yl)ethan-1-one] | ≤ 50 nM
25 | CC(=O)N1CCN(c2n[nH]c3nc(N4CCC5(CC4)Cc4ccccc4[C@H]5N)cnc23)c2ccccc21 [Example 2, 1-(4-{6-[(3S)-3-amino-1,3-dihydrospiro[indene-2,4′-piperidin]-1′-yl]-1H-pyrazolo[3,4-b]pyrazin-3-yl}-1,2,3,4-tetrahydroquinoxalin-1-yl)ethan-1-one] | ≤ 50 nM
26 | N[C@H]1c2ccccc2CC12CCN(c1cnc3c(N4CCCc5nc(-c6ccn[nH]6)ccc54)n[nH]c3n1)CC2 [Example 3] | ≤ 50 nM
27 | N[C@@H]1c2ccccc2CC12CCN(c1cnc3c(N4CCCc5nc(-c6ccn[nH]6)ccc54)n[nH]c3n1)CC2 [Example 4] | ≤ 50 nM
28 | NC1C2CC2CC12CCN(c1cnc3c(N4CCCc5ncccc54)n[nH]c3n1)CC2 (centres unmarked) [Example 7, 1′-(3-(3,4-dihydro-1,5-naphthyridin-1(2H)-yl)-1H-pyrazolo[3,4-b]pyrazin-6-yl)spiro[bicyclo[3.1.0]hexane-3,4′-piperidin]-2-amine] | ≤ 50 nM
29 | N[C@H]1c2cccc(F)c2CC12CCN(c1cnc3c(N4CCCc5ncccc54)n[nH]c3n1)CC2 [Example 16] | 1000 to 10000 nM
